For series [1] the following is noted: reported ETPC range; cited from earlier work.
For series [2], the system named is cardiac tissues bioprinted using dECM-rGO bioink (hiPSC-derived cardiomyocytes and HS27A stromal cells). Kind of series: Cisapride cardiotoxicity dose response, FluoVolt imaging, tissues printed with dECM-rGO bioink. In kind it is cell-based. The settings on record: Homo sapiens, HS-27A. The procedure: (§1) Tissues and support structures were bioprinted using a commercially available dual-extruder pneumatic bioprinter (Allevi BioBot 1). Five pairs of polycaprolactone (PCL) posts 1 mm in diameter, 5 mm tall, and 10 mm apart were printed in each well of a standard 6-well plate. An approximately 2 mm thick layer of NOA 83H resin (Norland Optical Adhesives) was then deposited onto the bottom of each well and cured by a 30 min exposure to UV light. Plates containing anchored posts were then sterilized by immersion in 70% v/v ethanol and subsequent UV light exposure. Sacrificial wells 12 mm×5 mm×1 mm (length×width×depth) were then printed around each post pair using 40% w/v Pluronic F-127, followed by approximately 50 μL of cell-laden hydrogel bioinks with the same cell densities as used in the EHT platform (20×10^6 hiPSC-derived cardiomyocytes/mL and 5×10^6 HS27A stromal cells/mL). Completed plates were then incubated at 37° C. and 5% CO2 for approximately 60 min, after which 5 mL of RPMI/B-27 with insulin (supplemented with Y-27632 dihydrochloride ROCK inhibitor and 1% penicillin/streptomycin) was added to each well. After 24 hrs, the media was replaced with fresh RPMI/B-27 with insulin and media changes were conducted every other day until tissues were used for drug screening. Exemplary cardiac tissues were bioprinted using dECM and dECM-rGO bioinks disclosed herein and cultured for 14 and 35 days. At these time points, tissues were washed with warm PBS before being incubated in medium containing a 1000X dilution of stock FluoVolt for 1 hr at 37° C., after which tissues were washed twice with warm Tyrode's buffer and incubated in Tyrode's containing 0.01, 0.1, 1, 5, 10, 50, 100, and 1000 nM cisapride (Sigma-Aldrich) dissolved in dimethyl sulfoxide (DMSO) for 45 mins. A group of tissues were also incubated in Tyrode's containing no cisapride, but an equivalent volume of DMSO (1 μL DMSO/mL Tyrode's). Functional response of these tissues to administered drug was assessed using FluoVolt dye in conjunction with live-tissue imaging as described above. Change in beat interval (ABI) was determined by measuring that duration of elapsed time between individual beats (the beat interval) and calculating the difference in this interval from one beat to the next. APD90 values were calculated as described above. Best-fit dose response curves were calculated using GraphPad Prism software. Drug concentration values were first transformed to a log scale and APD90 or ABI values were normalized such that the lowest value was set at 0% and the largest value at 100%. Finally, the normalized data was fit to a non-linear dose response curve using a least squares fit.

Series [3] deals with cardiac tissues bioprinted using dECM bioink (hiPSC-derived cardiomyocytes and HS27A stromal cells). Kind of series: Cisapride cardiotoxicity dose response, FluoVolt imaging, tissues printed with dECM bioink. The settings on record: Homo sapiens, HS-27A. Format: cell-based. The procedure:
as §1

Where [4] appears, read: 336 h, Day 14 of culture, change in beat interval, read-out: IC50 (ΔBI).
[5] abbreviates: Day 35 of culture, change in beat interval, read-out: IC50 (ΔBI).
The mark [6] stands for this setting: Day 35 of culture, read-out: IC50 (APD90).

These results are taken from patent US20210108180A1, “ELECTROCONDUCTIVE DECELLULARIZED EXTRACELLULAR MATRIX COMPOSITIONS FOR PREPARATION OF ENGINEERED TISSUES AND RELATED METHODS” (University of Washington, priority 2019, published 2021).

In general, IC50 refers to the point on the concentration scale where inhibition reaches its midpoint.

SMILES strings stand for the structures. Where two headings read alike, the source gives them in different places.

On to `COc1cc(N)c(Cl)cc1C(=O)NC1CCN(CCCOc2ccc(F)cc2)CC1OC` (stereo not drawn) [cisapride], for which the “effective therapeutic plasma concentration (ETPC)” value in series [1] was 2.6 to 4.9 nM. Moreover, the IC50 turned out to be 8.6 ± 1.2 nM in series [2] (setting [4]); 2.5 ± 1.3 nM in series [2] (Day 14 of culture, 45 min cisapride, read-out: IC50 (APD90)); 3.1 ± 1.3 nM in series [2] (setting [5]); 1.8 ± 1.4 nM in series [2] (setting [6]); 73.4 ± 1.4 nM in series [3] (setting [4]); 61.8 ± 1.4 nM in series [3] (336 h, Day 14 of culture, read-out: IC50 (APD90)). Moreover, the IC50 in series [3] (setting [5]) is 7.3 ± 1.2 nM; in series [3] (setting [6]), 2 ± 1.3 nM.
